Laboratory results taken from US9920032B2, “Heterocyclic compounds useful as pim kinase inhibitors” (Incyte Corporation, priority 2015, dated 2018).

Assays:
Type in all cases: biochemical
[1] = biological target: Pim-1 (Homo sapiens (Human), UniProt P11309); experiment: Pim-1 kinase assay; conditions: 1 mM ATP; read-out: PIM1 IC50
Procedure: (§1) Pim-1 and Pim-3 kinase assays—20 μL reactions were run in white 384 well polystyrene plates dotted with 0.8 μL compound/DMSO in the assay buffer (50 mM Tris, pH 7.5, 0.01% Tween-20, 5 mM mgCl2, 0.01% BSA, 5 mM DTT), containing 0.05 μM Biotin-labeled BAD peptide substrate (AnaSpec 62269), 1 mM ATP, and 2.5 pM (Pim-1, Invitrogen PV3503) or 1.25 pM (Pim-3, Millipore 14-738) enzyme for 1 h at 25° C. Reactions were stopped by addition of 10 μL STOP Buffer (150 mM Tris, pH=7.5, 150 mM NaCl, 75 mM EDTA, 0.01% Tween-20, 0.3% BSA,) supplemented with Phospho-Bad (Ser112) Antibody (Cell Signaling 9291) diluted 666-fold, and Streptavidin donor beads (PerkinElmer 6760002) along with Protein-A acceptor beads (PerkinElmer 6760137) at […]. Supplementation of the STOP buffer with beads and stopping the reactions were done under reduced light. Prior to the stopping reactions STOP buffer with beads was preincubated for 1 h in the dark at room temperature. After stopping the reactions, plates were incubated for 1 h in the dark at room temperature before reading on a PHERAstar FS plate reader (BMG Labtech) under reduced light.

[2] = biological target: Pim-2 (Homo sapiens (Human), UniProt Q9P1W9); experiment: Pim-2 kinase assay; conditions: 1 mM ATP; read-out: PIM2 IC50
Sequence of Pim-2 (Q9P1W9 whole entry): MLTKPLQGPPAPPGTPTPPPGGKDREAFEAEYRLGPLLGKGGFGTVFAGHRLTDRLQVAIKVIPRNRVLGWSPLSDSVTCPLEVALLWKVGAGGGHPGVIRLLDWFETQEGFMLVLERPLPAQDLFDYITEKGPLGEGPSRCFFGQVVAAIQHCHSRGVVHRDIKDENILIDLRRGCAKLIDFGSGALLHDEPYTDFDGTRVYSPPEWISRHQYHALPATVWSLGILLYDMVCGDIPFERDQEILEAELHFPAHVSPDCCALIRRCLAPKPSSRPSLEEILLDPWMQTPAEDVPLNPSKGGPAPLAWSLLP
Procedure: Pim-2 kinase assay—20 μL reactions were run in white 384 well polystyrene plates dotted with 0.8 μL compound/DMSO in the assay buffer (50 mM Tris, pH 7.5, 0.01% Tween-20, 5 mM mgCl2, 0.01% BSA, 5 mM DTT), containing 0.05 μM Fluorescein-labeled CREBtide peptide substrate (Invitrogen PV3508), 1 mM ATP, and 1 nM enzyme (Invitrogen PV3649) for 2 h at 25° C. Reactions were stopped by addition of 10 μL TR-FRET Dilution Buffer (Invitrogen PV3574) with 30 mM EDTA and 1.5 nM LanthaScreen Tb-CREB pSer133 antibody (Invitrogen PV3566). After 30 min. incubation at room temperature, plates were read on a PHERAstar FS plate reader (BMG Labtech).

[3] = biological target: Pim-3 (Homo sapiens (Human), UniProt Q86V86); experiment: Pim-3 kinase assay; conditions: 1 mM ATP; read-out: PIM3 IC50
Procedure: as §1

Sequence of Pim-1 (P11309 whole entry): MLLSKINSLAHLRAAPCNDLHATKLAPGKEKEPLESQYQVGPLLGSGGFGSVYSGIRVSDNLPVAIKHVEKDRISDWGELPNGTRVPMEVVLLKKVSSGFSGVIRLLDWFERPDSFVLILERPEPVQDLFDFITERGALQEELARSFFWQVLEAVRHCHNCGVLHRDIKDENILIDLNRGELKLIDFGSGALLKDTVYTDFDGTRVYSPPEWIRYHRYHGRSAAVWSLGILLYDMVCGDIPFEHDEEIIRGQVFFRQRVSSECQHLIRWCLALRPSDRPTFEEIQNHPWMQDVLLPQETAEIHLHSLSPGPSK

Row | SMILES | IC50 [1] | IC50 [2] | IC50 [3]
1 | C[C@@H]1C[C@H](N)C[C@H](c2ccncc2NC(=O)c2ccc(F)c3cc(N4CCN(C(=O)N(C)C)CC4)cnc23)C1 [Example 82, N-(4-((1R,3S,5S)-3-Amino-5-methylcyclohexyl)pyridin-3-yl)-3-(4-(dimethylcarbamoyl)piperazin-1-yl)-5-fluoroquinoline-8-carboxamide] | ≤ 10 nM | 100 to 1000 nM | ≤ 10 nM
2 | C[C@@H]1C[C@H](N)C[C@H](c2ccncc2NC(=O)c2ccc(F)c3cc(N4CCCC4)cnc23)C1 [Example 3, N-{4-[(1R,3S,5S)-3-Amino-5-methylcyclohexyl]pyridin-3-yl}-5-fluoro-3-pyrrolidin-1-ylquinoline-8-carboxamide] | ≤ 10 nM | 100 to 1000 nM | 10 to 50 nM
3 | Cc1ccncc1N(C)c1cnc2c(C(=O)Nc3cnccc3[C@@H]3C[C@H](C)C[C@H](N)C3)ccc(F)c2c1 [Example 146, N-(4-((1R,3S,5S)-3-Amino-5-methylcyclohexyl)pyridin-3-yl)-5-fluoro-3-(methyl(4-methylpyridin-3-yl)amino)quinoline-8-carboxamide] | ≤ 10 nM | ≤ 100 nM | ≤ 10 nM
4 | COC(=O)N1CCN(c2cnc3c(C(=O)Nc4cnccc4[C@@H]4C[C@H](C)C[C@H](N)C4)ccc(F)c3c2)[C@H](C)C1 [Example 89, (R)-Methyl 4-(8-(4-((1R,3S,5S)-3-amino-5-methylcyclohexyl)pyridin-3-ylcarbamoyl)-5-fluoroquinolin-3-yl)-3-methylpiperazine-1-carboxylate] | ≤ 10 nM | ≤ 100 nM | ≤ 10 nM
5 | CO[C@H]1C[C@@H](C)N(c2cnc3c(C(=O)Nc4cnccc4[C@@H]4C[C@H](C)C[C@H](N)C4)ccc(F)c3c2)C1 [Example 158, N-(4-((1R,3S,5S)-3-Amino-5-methylcyclohexyl)pyridin-3-yl)-5-fluoro-3-((2R,4S)-4-methoxy-2-methylpyrrolidin-1-yl)quinoline-8-carboxamide] | ≤ 10 nM | ≤ 100 nM | ≤ 10 nM
6 | C[C@@H]1C[C@H](N)C[C@H](c2ccncc2NC(=O)c2ccc(F)c3cc(N4CC5(CCC5)C4)cnc23)C1 [Example 107, N-(4-((1R,3S,5S)-3-Amino-5-methylcyclohexyl)pyridin-3-yl)-5-fluoro-3-(2-azaspiro[3.3]heptan-2-yl)quinoline-8-carboxamide] | ≤ 10 nM | ≤ 100 nM | ≤ 10 nM
7 | C[C@@H]1C[C@H](N)C[C@H](c2ccncc2NC(=O)c2ccc(F)c3cc(N4CC5(CC(O)C5)C4)cnc23)C1 [Example 103, N-(4-((1R,3S,5S)-3-Amino-5-methylcyclohexyl)pyridin-3-yl)-5-fluoro-3-(6-hydroxy-2-azaspiro[3.3]heptan-2-yl)quinoline-8-carboxamide] | ≤ 10 nM | ≤ 100 nM | ≤ 10 nM
8 | C[C@@H]1C[C@H](N)C[C@H](c2ccncc2NC(=O)c2ccc(F)c3cc(N4CCC[C@H](C)C4)cnc23)C1 [Example 113, N-(4-((1R,3S,5S)-3-Amino-5-methylcyclohexyl)pyridin-3-yl)-5-fluoro-3-((S)-3-methylpiperidin-1-yl)quinoline-8-carboxamide] | ≤ 10 nM | ≤ 100 nM | ≤ 10 nM
9 | C[C@@H]1C[C@H](N)C[C@H](c2ccncc2NC(=O)c2ccc(F)c3cc(N4C[C@H]5C[C@@H]4CO5)cnc23)C1 [Example 80, N-(4-((1R,3S,5S)-3-Amino-5-methylcyclohexyl)pyridin-3-yl)-3-((1R,4R)-2-oxa-5-azabicyclo[2.2.1]heptan-5-yl)-5-fluoroquinoline-8-carboxamide] | ≤ 10 nM | ≤ 100 nM | ≤ 10 nM
10 | C[C@@H]1C[C@H](N)C[C@H](c2ccncc2NC(=O)c2ccc(F)c3cc(-c4c(F)cc(O)cc4F)cnc23)C1 [Example 18, N-{4-[(1R,3S,5S)-3-Amino-5-methylcyclohexyl]pyridin-3-yl}-3-(2,6-difluoro-4-hydroxyphenyl)-5-fluoroquinoline-8-carboxamide] | ≤ 10 nM | ≤ 100 nM | ≤ 10 nM
